According to PubChem BioAssay AID1918937 (Molecular Pharmacology Branch, DTP, NCI, 2023):

Test system: 521955-158-R2-J5-PDC complex spheroid viability
Experiment: Anticancer human tumor 521955-158-R2-J5-PDC patient-derived pancreatic carcinoma cell line growth inhibition
Settings: for IC50: curve of first compound; for viability, T/C: stronger effect = lower value
Procedure, shortened: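 Drug combinations with the LSD1 inhibitor iadademstat tested on tumor cells co-cultured as spheroids with endothelial cells and mesenchymal stem cells. Concentrations descended in half-log increments from clinical Cmax or 10 microM.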

[1] = second compound 0.1 µM, first compound 0.00949 µM
[2] = second compound 0.1 µM, first compound 0.03 µM
[3] = second compound 0.1 µM, first compound 0.0949 µM
[4] = second compound 0.1 µM, first compound 0.3 µM
[5] = second compound 0.1 µM, first compound 0.949 µM
[6] = second compound 0.1 µM, first compound 3 µM
[7] = second compound 0.316 µM, first compound 0.00949 µM
[8] = second compound 0.316 µM, first compound 0.03 µM
[9] = second compound 0.316 µM, first compound 0.0949 µM
[10] = second compound 0.316 µM, first compound 0.3 µM
[11] = second compound 0.316 µM, first compound 0.949 µM
[12] = second compound 0.316 µM, first compound 3 µM
[13] = second compound 1 µM, first compound 0.00949 µM
[14] = second compound 1 µM, first compound 0.03 µM
[15] = second compound 1 µM, first compound 0.0949 µM
[16] = second compound 1 µM, first compound 0.3 µM
[17] = second compound 1 µM, first compound 0.949 µM
[18] = second compound 1 µM, first compound 3 µM
[19] = second compound 3.16 µM, first compound 0.00949 µM
[20] = second compound 3.16 µM, first compound 0.03 µM
[21] = second compound 3.16 µM, first compound 0.0949 µM
[22] = second compound 3.16 µM, first compound 0.3 µM
[23] = second compound 3.16 µM, first compound 0.949 µM
[24] = second compound 3.16 µM, first compound 3 µM
[25] = second compound 10 µM, first compound 0.00949 µM
[26] = second compound 10 µM, first compound 0.03 µM
[27] = second compound 10 µM, first compound 0.0949 µM
[28] = second compound 10 µM, first compound 0.3 µM
[29] = second compound 10 µM, first compound 0.949 µM
[30] = second compound 10 µM, first compound 3 µM
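Note: spheroids exposed to agents for seven days.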
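Throughout, for viability, T/C: percent of DMSO vehicle control luminescence viability.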

| Structure (SMILES) | IC50 (second compound 0.1 µM) | IC50 (second compound 0.316 µM) | IC50 (second compound 1 µM) | IC50 (second compound 3.16 µM) | IC50 (second compound 10 µM) | viability, T/C [1] | viability, T/C [2] | viability, T/C [3] | viability, T/C [4] | viability, T/C [7] | viability, T/C [8] | viability, T/C [9] | viability, T/C [10] | viability, T/C [13] | viability, T/C [14] | viability, T/C [15] | viability, T/C [16] | viability, T/C [19] | viability, T/C [20] | viability, T/C [21] | other results |
| --- | --- | --- | --- | --- | --- | --- | --- | --- | --- | --- | --- | --- | --- | --- | --- | --- | --- | --- | --- | --- | --- |
| COc1cc(C2c3cc4c(cc3C(OC3OC5COC(C)OC5C(O)C3O)C3COC(=O)C23)OCO4)cc(OC)c1O (stereo not given) + NC1CCC(NC2CC2c2ccccc2)CC1 | 71.4 nM | 76.7 nM | 59.8 nM | 79.1 nM | 72.2 nM | 106% | 92.6% | 35.4% | 15.4% | 102% | 88.5% | 40.6% | 15.8% | 93.3% | 77.7% | 30.6% | 16.2% | 96.6% | 91.3% | 41.2% | viability, T/C [5]: 9.48%; viability, T/C [6]: 7.12%; viability, T/C [11]: 10.4%; viability, T/C [12]: 6.65%; viability, T/C [17]: 8.2%; viability, T/C [18]: 6.77%; viability, T/C [22]: 17.7%; viability, T/C [23]: 9.09%; viability, T/C [24]: 7.34%; viability, T/C [25]: 99.4%; viability, T/C [26]: 94.4%; viability, T/C [27]: 35.6%; viability, T/C [28]: 18%; viability, T/C [29]: 7.96%; viability, T/C [30]: 6.31% |
| CCc1c2c(nc3ccc(O)cc13)-c1cc3c(c(=O)n1C2)COC(=O)[C@]3(O)CC + NC1CCC(NC2CC2c2ccccc2)CC1 | < 0.949 nM | < 0.949 nM | < 0.949 nM | < 0.949 nM | < 0.949 nM | 1.16% | 0.45% | 0.43% | 0.63% | 0.9% | 0.54% | 0.4% | 0.58% | 0.97% | 0.59% | 0.52% | 0.46% | 0.95% | 0.3% | 0.53% | viability, T/C (second compound 0.1 µM, first compound 0.000949 µM): 4.35%; viability, T/C (second compound 0.1 µM, first compound 0.003 µM): 3.31%; viability, T/C (second compound 0.316 µM, first compound 0.000949 µM): 5.2%; viability, T/C (second compound 0.316 µM, first compound 0.003 µM): 4.07%; viability, T/C (second compound 1 µM, first compound 0.000949 µM): 5.26%; viability, T/C (second compound 1 µM, first compound 0.003 µM): 3.09%; viability, T/C (second compound 3.16 µM, first compound 0.000949 µM): 4.43%; viability, T/C (second compound 3.16 µM, first compound 0.003 µM): 3.74%; viability, T/C [22]: 1.4%; viability, T/C (second compound 10 µM, first compound 0.000949 µM): 4.7%; viability, T/C (second compound 10 µM, first compound 0.003 µM): 4.29%; viability, T/C [25]: 1.07%; viability, T/C [26]: 0.67%; viability, T/C [27]: 1.68%; viability, T/C [28]: 0.55% |
| NS(=O)(=O)OCC1CC(n2ccc3c(NC4CCc5ccccc54)ncnc32)CC1O (stereo not given) + NC1CC1c1ccc(-c2cccc(O)c2)cc1 | 66.1 nM | 62.9 nM | 52.8 nM | 54.3 nM | 40.8 nM | 96.4% | 72.8% | 38.5% | 22.4% | 117% | 71.1% | 38.3% | 21.7% | 111% | 62.5% | 37.6% | 21.2% | 120% | 63.6% | 38.1% | viability, T/C [5]: 16.1%; viability, T/C [6]: 11%; viability, T/C [11]: 17.4%; viability, T/C [12]: 12.3%; viability, T/C [17]: 16.7%; viability, T/C [18]: 11.5%; viability, T/C [22]: 21.3%; viability, T/C [23]: 17.7%; viability, T/C [24]: 14.1%; viability, T/C [25]: 83.7%; viability, T/C [26]: 54.5%; viability, T/C [27]: 37.5%; viability, T/C [28]: 23.9%; viability, T/C [29]: 21%; viability, T/C [30]: 16% |
